Test results from patent US20230227453A1 (priority 2020, published 2023).

Legend:
[1] = molecular target: T1, 5-HT2C edited (accession number AAF35842.1) (Homo sapiens, UniProt P28335, I156V/I160V/N158S); test: cell-based
Target sequence in this assay (P28335 33-458 I156V/N158S/I160V limits assumed): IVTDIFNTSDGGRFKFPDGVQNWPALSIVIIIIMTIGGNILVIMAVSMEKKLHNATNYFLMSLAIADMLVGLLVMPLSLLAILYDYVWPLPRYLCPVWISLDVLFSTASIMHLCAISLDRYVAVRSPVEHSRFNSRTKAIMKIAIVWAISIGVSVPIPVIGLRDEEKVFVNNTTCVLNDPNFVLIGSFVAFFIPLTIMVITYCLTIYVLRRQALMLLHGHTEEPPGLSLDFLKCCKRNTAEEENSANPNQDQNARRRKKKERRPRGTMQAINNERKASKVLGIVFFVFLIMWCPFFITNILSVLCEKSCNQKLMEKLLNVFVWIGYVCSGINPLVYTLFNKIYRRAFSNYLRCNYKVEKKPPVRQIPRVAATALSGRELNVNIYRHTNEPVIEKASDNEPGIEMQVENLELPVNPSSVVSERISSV

[2] = molecular target: T1, 5-HT2C edited (accession number AAF35842.1); test: biochemical; assay type: binding
Target sequence in this assay (P28335 whole entry I156V/N158S/I160V, looked up): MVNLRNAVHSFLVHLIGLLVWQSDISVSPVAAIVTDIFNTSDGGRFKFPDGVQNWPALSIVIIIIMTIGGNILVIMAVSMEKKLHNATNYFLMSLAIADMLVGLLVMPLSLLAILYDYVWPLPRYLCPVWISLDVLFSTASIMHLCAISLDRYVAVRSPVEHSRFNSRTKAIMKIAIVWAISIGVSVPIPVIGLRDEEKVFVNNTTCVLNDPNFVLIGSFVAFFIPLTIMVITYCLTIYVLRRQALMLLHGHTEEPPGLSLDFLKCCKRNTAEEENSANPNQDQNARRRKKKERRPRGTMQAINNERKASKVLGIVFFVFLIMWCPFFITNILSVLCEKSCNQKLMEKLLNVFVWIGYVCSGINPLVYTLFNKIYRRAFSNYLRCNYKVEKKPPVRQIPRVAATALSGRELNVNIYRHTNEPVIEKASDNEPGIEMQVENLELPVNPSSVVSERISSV

SMILES | EC50 [1] [nM] | IC50 [2] [nM]
Clc1cnc2[nH]c3c(c2c1)CCNCC3 [Example 13, 3-chloro-5,6,7,8,9,10-hexahydropyrido[3′,2′:4,5]pyrrolo[2,3-d] azepine] | < 10 | 10 to 100
Cc1ccc2c3c([nH]c2n1)CCNCC3 [Example 8, 2-methyl-5,6,7,8,9,10-hexahydropyrido[3′,2′:4,5]pyrrolo[2,3-d]azepine] | 10 to 100 | 101 to 1000
Cc1ccc2c3c(n(C)c2n1)CCNCC3 [Example 10, 2,10-dimethyl-5,6,7,8,9,10-hexahydropyrido[3′,2′:4,5]pyrrolo[2,3-d]azepine] | 10 to 100 | 101 to 1000
Cn1c2c(c3cccnc31)CCN(C1COC1)CC2 [Example 23, 10-methyl-7-(oxetan-3-yl)-5,6,7,8,9,10-hexahydropyrido[3′,2′:4,5]pyrrolo[2,3-d]azepine] | 1000 to 10000 | 1000 to 10000
COc1ccc2c3c([nH]c2n1)CCNCC3 [Example 2, 2-methoxy-5,6,7,8,9,10-hexahydropyrido[3′,2′:4,5]pyrrolo[2,3-d]azepine] | 10 to 100 | 101 to 1000
CN1CCc2c(n(C)c3ncc(Cl)cc23)CC1 [Example 30, 3-chloro-7,10-dimethyl-5,6,7,8,9,10-hexahydropyrido[3′,2′:4,5]pyrrolo[2,3-d]azepine] | 10 to 100 | 10 to 100
Cn1c2c(c3ccc(Br)nc31)CCNCC2 [Example 25, 2-bromo-10-methyl-5,6,7,8,9,10-hexahydropyrido[3′,2′:4,5]pyrrolo[2,3-d]azepine] | < 10 | 10 to 100
CN1CCc2[nH]c3ncc(Cl)cc3c2CC1 [Example 26, 3-chloro-7-methyl-5,6,7,8,9,10-hexahydropyrido[3′,2′:4,5]pyrrolo[2,3-d]azepine] | 10 to 100 | 10 to 100
Cc1ccc2c3c(n(C)c2n1)CCN(C)CC3 [Example 12, 2,7,10-trimethyl-5,6,7,8,9,10-hexahydropyrido[3′,2′:4,5]pyrrolo[2,3-d]azepine] | 101 to 1000 | 101 to 1000
COc1ccc2[nH]c3c(c2n1)CCN(C)CC3 [Example 15, 2-methoxy-8-methyl-5,6,7,8,9,10-hexahydropyrido[2′,3′:4,5]pyrrolo[2,3-d]azepine] | 10 to 100 | 10 to 100
CN1CCc2[nH]c3ncccc3c2CC1 [Example 20, 7-methyl-5,6,7,8,9,10-hexahydropyrido[3′,2′:4,5]pyrrolo[2,3-d]azepine] | 10 to 100 | 10 to 100
Cn1c2c(c3cc(Cl)cnc31)CCN(C1COC1)CC2 [Example 29, 3-chloro-10-methyl-7-(oxetan-3-yl)-5,6,7,8,9,10-hexahydropyrido[3′,2′:4,5]pyrrolo[2,3-d]azepine] | 1000 to 10000 | 1000 to 10000
Cc1ccc2c3c(n(C)c2n1)CCN(C1COC1)CC3 [Example 11, 2,10-dimethyl-7-(oxetan-3-yl)-5,6,7,8,9,10-hexahydropyrido[3′,2′:4,5]pyrrolo[2,3-d]azepine] | > 10000 | 1000 to 10000
Cn1c2c(c3cccnc31)CCNCC2 [Example 18, 10-methyl-5,6,7,8,9,10-hexahydropyrido[3′,2′:4,5]pyrrolo[2,3-d]azepine] | < 10 | 10 to 100
COc1cc2c3c([nH]c2cn1)CCN(C)CC3 [Example 14, 3-methoxy-7-methyl-5,6,7,8,9,10-hexahydropyrido[4′,3′:4,5]pyrrolo[2,3-d]azepine] | > 10000 | > 10000
CN1CCc2[nH]c3nc(Br)ccc3c2CC1 [Example 19, 2-bromo-7-methyl-5,6,7,8,9,10-hexahydropyrido[3′,2′:4,5]pyrrolo[2,3-d]azepine] | 10 to 100 | 101 to 1000
c1cnc2[nH]c3c(c2c1)CCN(C1COC1)CC3 [Example 22, 7-(oxetan-3-yl)-5,6,7,8,9,10-hexahydropyrido[3′,2′:4,5]pyrrolo[2,3-d]azepine] | 1000 to 10000 | > 10000
c1cnc2[nH]c3c(c2c1)CCNCC3 [Example 17, 5,6,7,8,9,10-hexahydropyrido[3′,2′:4,5] pyrrolo[2,3-d] azepine] | < 10 | 10 to 100
Clc1cnc2[nH]c3c(c2c1)CCN(C1COC1)CC3 [Example 27, 3-chloro-7-(oxetan-3-yl)-5,6,7,8,9,10-hexahydropyrido[3′,2′:4,5]pyrrolo[2,3-d]azepine] | 101 to 1000 | 101 to 1000
Cc1ccc2c3c([nH]c2n1)CCN(C)CC3 [Example 7, 2,7-dimethyl-5,6,7,8,9,10-hexahydropyrido[3′,2′:4,5]pyrrolo[2,3-d]azepine] | 101 to 1000 | 101 to 1000
COc1ccc2c3c([nH]c2n1)CCN(C)CC3 [Example 1, 2-methoxy-7-methyl-5,6,7,8,9,10-hexahydropyrido[3′,2′:4,5]pyrrolo[2,3-d]azepine] | 101 to 1000 | 1000 to 10000
COc1ccc2c3c(n(C)c2n1)CCN(C)CC3 [Example 3, 2-methoxy-7,10-dimethyl-5,6,7,8,9,10-hexahydropyrido[3′,2′:4,5]pyrrolo[2,3-d]azepine] | 101 to 1000 | 101 to 1000
Cn1c2c(c3cc(Cl)cnc31)CCNCC2 [Example 28, 3-chloro-10-methyl-5,6,7,8,9,10-hexahydropyrido[3′,2′:4,5]pyrrolo[2,3-d]azepine] | 10 to 100 | 10 to 100
COc1ccc2c3c(n(C)c2n1)CCN(C1COC1)CC3 [Example 6, 2-methoxy-10-methyl-7-(oxetan-3-yl)-5,6,7,8,9,10-hexahydropyrido[3′,2′:4,5]pyrrolo[2,3-d]azepine] | 101 to 1000 | 1000 to 10000
CN1CCc2c(n(C)c3ncccc23)CC1 [Example 21, 7,10-dimethyl-5,6,7,8,9,10-hexahydropyrido[3′,2′:4,5]pyrrolo[2,3-d]azepine] | 10 to 100 | 10 to 100
Brc1ccc2c3c([nH]c2n1)CCNCC3 [Example 16, 2-bromo-5,6,7,8,9,10-hexahydropyrido[3′,2′:4,5]pyrrolo[2,3-d]azepine] | < 10 | 10 to 100
Brc1ccc2c3c([nH]c2n1)CCN(C1COC1)CC3 [Example 24, 2-bromo-7-(oxetan-3-yl)-5,6,7,8,9,10-hexahydropyrido[3′,2′:4,5]pyrrolo[2,3-d]azepine] | 101 to 1000 | 101 to 1000
COc1ccc2c3c([nH]c2n1)CCN(C1COC1)CC3 [Example 4, 2-methoxy-7-(oxetan-3-yl)-5,6,7,8,9,10 hexahydropyrido[3′,2′:4,5]pyrrolo[2,3-d]azepine] | > 10000 | > 10000
Cc1ccc2c3c([nH]c2n1)CCN(C1COC1)CC3 [Example 9, 2-methyl-7-(oxetan-3-yl)-5,6,7,8,9,10-hexahydropyrido[3′,2′:4,5]pyrrolo[2,3-d]azepine] | > 10000 | > 10000
COc1ccc2c3c(n(C)c2n1)CCNCC3 [Example 5, 2-methoxy-10-methyl-5,6,7,8,9,10-hexahydropyrido[3′,2′:4,5]pyrrolo[2,3-d]azepine] | 10 to 100 | 10 to 100
